Consider five compounds from patent EP4772500A1, “NOVEL ISOXAZOLE COMPOUND AS TM4SF5-SPECIFIC INHIBITOR AND USE THEREOF” (Seoul National University R&DB Foundation, priority 2023, dated 2025).

The target in one assay is T1, TM4SF5 and PD-L1 (Homo sapiens, UniProt O14894).
T1 construct: expressed in transfected cells; host or cells: SNU449 cells stably expressing TM4SF5, additionally transfected with PD-L1-HA cDNA
T1 sequence (O14894 1-197): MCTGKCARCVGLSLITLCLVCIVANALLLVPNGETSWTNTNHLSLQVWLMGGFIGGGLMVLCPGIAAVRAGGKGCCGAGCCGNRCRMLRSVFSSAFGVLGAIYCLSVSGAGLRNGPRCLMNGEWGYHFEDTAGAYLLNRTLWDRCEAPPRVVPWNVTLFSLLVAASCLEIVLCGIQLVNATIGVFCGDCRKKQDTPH
The assay is described as follows: Pulldown: binding between TM4SF5 and PD-L1. It is filed as cell-based. Conditions: 2.5 µM, 24 hours, SNU449 (FIG. 17c). As for the experimental part: (§1) Cells were cultured to ~60% density in a cell incubator at 37°C and 5% CO2, and then transfected using PEI and cultured in a cell incubator at 37°C for two days. After cultivation, cell extracts were obtained by the method described above. After precipitating a desired protein from the cell extracts using an immunoprecipitation method, the binding proteins were identified by the Western blot technique described above. Specifically, cells cultured in a 100 mm cell culture dish for two days were washed twice with PBS, and protease inhibitor cocktails (GenDepot, USA) were added to 500 µl of immunoprecipitation lysis buffer (0.5% Triton X-100 or Brij 58, 40 mM HEPES, 150 mM NaCl, 1 mM EDTA, pH 7.4), followed by treatment at 4°C for 15 minutes. After collecting the cells, centrifugation was performed at 12,000x g at 4°C for 15 minutes, and the supernatant was transferred to a new microcentrifuge tube to obtain a cell extract. Proteins therein were quantified using a BCA reagent (Thermo Scientifics, USA). An electrophoresis sample was prepared by adding 4x laemmli sample buffer to a portion of the quantified sample and boiling at 100°C for 5 minutes. For immunoprecipitation, Streptavidin Agarose Resin (Thermo Fisher Scientific) or anti-HA antibody-coated Sepharose beads were added in proportion to the quantified protein amount, followed by rotation at 4°C for 4 hours, and then centrifugation was performed at 7,000x g at 4°C for 5 minutes and the supernatant was discarded. […]
(a-b) The same number of SNU449-EV or SNU449-TM4SF5 cells were transferred to culture vessels and cultured overnight. […] From the cell extracts, Strep-TM4SF5 was pulled down with strep-agarose beads, and then Western blotting was performed using antibodies against the indicated proteins, or the intracellular localization and expression level of TM4SF5 (red fluorescence) and PD-L1 (green fluorescence) were confirmed with a fluorescence microscope through immunostaining along with DNA staining using DAPI.

The next assay relates to Human Jurkat T cells. The assay can be described thus: T cell activation (Granzyme B, PD-1) after PMA/INO. The conditions noted are these: for activation by PMA/INO (Granzyme B production): PMA (10 ng/ml) and INO (1 µg/ml), 24 hours (FIG. 18a). The class given is cell-based. As for the experimental part:
(a) Human Jurkat T cells were activated by treating with PMA (10 ng/ml) and INO (1 µg/ml) for 24 hours. A non-treated state was also included as a control. […] (b) Human Jurkat T cells were either not treated or treated with PMA (25 ng/ml) and INO (1 µg/ml) for 24 hours, and IL-21 was treated at a level of 50 ng/ml for the last 6 hours. Simultaneously with the PMA/INO treatment, ST-5-002 was treated or not treated at 2.5 µM. At this time, the expression levels of Granzyme B and PD-1, or the phosphorylation of Ser473 of AKTs and Thr202/Tyr204 of ERKs, were enhanced by PMA/INO.

The target in assay [1] is T2, TM4SF5 (Homo sapiens, UniProt O14894).
T2 sequence (O14894 1-197): T1 sequence (O14894 1-197)
The assay can be described thus: TM4SF5 expression-dependent animal models (summary statement). The class given is in vivo. Further details: expressed in transfected cells; captured on streptavidin agarose. The text has this:
In addition, the isoxazole compounds are capable of reversing both (i) an increase in PD-L1 expression and stabilization through direct binding mediated by TM4SF5 and (ii) induction of PD-1 expression in T cells, which suppresses T-cell activation and cancer cell killing functions.

The target of assay [2] is T2, TM4SF5. The assay can be described thus: Streptavidin pulldown and Western blotting: binding between TM4SF5 and cell membrane receptors/signaling factors. It is filed as cell-based. Also noted: expressed in transfected cells; host or cells: SNU449 human hepatocellular carcinoma cells, stably transfected. Conditions: 24 hours. As for the experimental part: as §1, with “After collecting the cells, centrifugation was performed at 12,000x g at 4°C for 15 minutes, and the supernatant was transferred to a new microcentrifuge tube to obtain a cell extract.” left out

A value given as a limit tells only on which side of the number the result lay.

For `CC(=O)Nc1ccc(-c2cc(-c3ccc(O)cc3)no2)cc1` [ST-5-001, N-(4-(3-(4-hydroxyphenyl)isoxazole-5-yl)phenyl)acetamide], on TM4SF5 and PD-L1, the “binding between TM4SF5 and PD-L1” value was “decreased and inhibited”. The “activation by PMA/INO (Granzyme B production)” value in the assay on Human Jurkat T cells is given as “further increased”. At TM4SF5 [1], the “doses at which effects were exhibited” value is recorded as no more than 2.5 mpk.
As to `COc1ccc(-c2cc(-c3ccc(N)cc3)no2)cc1` [ST-1-025, 4-(5-(4-methoxyphenyl)isoxazole-3-yl)aniline], on TM4SF5 [2] (3 µM, SNU449 (FIG. 4)), the “binding of TM4SF5 to EGFR, CD44, and GLUT4” value is “slightly inhibited”.
For the compound `Cc1ccc(S(=O)(=O)Nc2ccc(C(=O)/C=C/c3ccc(O)cc3)cc2)cc1` [TSAHC, 4'-(p-toluenesulfonylamino)-4-hydroxychalcone, reference compound], on TM4SF5 and PD-L1, the “binding between TM4SF5 and PD-L1” value is given as “inhibition”.
Turning to `COc1ccc(-c2cc(-c3ccc(NC(C)=O)cc3)no2)cc1` [ST-2-001, N-(4-(5-(4-methoxyphenyl)isoxazole-3-yl)phenyl)acetamide], the “binding between TM4SF5 and EGFR, integrin α5, CD133, CD44, mTOR, IL-6R α, GLUT1, and GLUT4” value at TM4SF5 [2] (5 µM, SNU449 (FIG. 6)) is listed as “inhibited”.
With `Cc1ccc(C(=O)Nc2ccc(-c3cc(-c4ccc(O)cc4)no3)cc2)cc1` [ST-5-002, N-(4-(3-(4-hydroxyphenyl)isoxazole-5-yl)phenyl)-4-methylbenzamide], the “binding between TM4SF5 and PD-L1” value on TM4SF5 and PD-L1 is “decreased and inhibited”. Moreover, the “activation by PMA/INO (Granzyme B production)” value in the assay on Human Jurkat T cells was “further increased”. Besides, in the assay with Human Jurkat T cells (PMA (25 ng/ml) and INO (1 µg/ml), 2.5 µM alone (FIG. 18b)), the “expression of Granzyme B and PD-1” value was “further increased”. In the assay with Human Jurkat T cells (PMA/INO, 2.5 µM together with IL-21 50 ng/ml (FIG. 18b)), the “level of Granzyme B” value is “even higher”. Moreover, the “doses at which effects were exhibited” value at TM4SF5 [1] is recorded as no more than 2.5 mpk.
